We go through three compounds from article PMC3066593, “Liposomal Tumor Targeting in Drug Delivery Utilizing MMP-2- and MMP-9-Binding Ligands” (Journal of Drug Delivery, 2010).

One data set concerns A2780 xenografts. Briefly: Therapeutic efficacy (survival) in subcutaneous A2780 xenografts. It is filed as in vivo, NMRI nude mice. The following applies: 9 mg/kg i.v. How it is done:
(§1) Therapeutic efficacy studies were conducted in subcutaneous A2780 xenografts using doxorubicin, administered as either CTT2-SL liposomes or Caelyx. Commercially available nonliposomal (“free”) drug (i.e., doxorubicin) and saline dilution buffer were used as treatment controls. A2780 ovarian cancer cells (5×10^6 in 100 μl PBS) were injected subcutaneously into the posterior flanks of NMRI nude mice (n = 40). Mice received i.v. bolus injections of CTT2-SL liposome, Caelyx, doxorubicin, and buffer. CTT2-SL liposomes were injected when tumor volumes reached 65 mm^3, while administration of Caelyx and doxorubicin to different xenograft mice was offset in time from CTT2-SL liposomes by 3 and 6 days, respectively. Doxorubicin, CTT2-SL liposomes, and Caelyx were injected at doses of 9 mg/kg each. Mouse body weights were monitored throughout the study period.

Data set [1] in a line: Mouse body weight during efficacy study. It is filed as in vivo, NMRI nude mice. Conditions: at day 9; 9 mg/kg doxorubicin equivalents at day 0, 3 and 6; mean of 9 mice; weights returned to initial levels one week later. As to the method:
as §1

Data set [2] is described as follows: Hepatic accumulation of 125I-labelled peptides in normal mice. It is filed as in vivo. How it is done:
Radiolabeling of peptides and all liposomal formulations with iodine-125 (^125I) was performed using the IODOGEN (Pierce, Rockford, IL). The CTT2-PEG3400-DSPE peptide was labeled with ^125I using iodogen as a catalyst. 5 MBq of Na125I (Amersham, Buckinghamshire, England) in 0.5 ml PBS was added to a tube containing 10 μg dried iodogen and 100 μg CTT2-PEG3400-DSPE peptide construct. The mixture was incubated for 20 min at room temperature. The ^125I-bound particle fractions were purified by elution from PD-10 columns. The activity of the peptide was determined in a gamma counter (Cobra II, Packard Instruments).
Following single i.v. tracer doses of purified ^125I-CTT1-peptide (∼40 μg/mouse), ^125I-CTT2-peptide (∼40 μg/mouse), or CTT2-micelles (200 μg/mouse; 200 kBq), the percentage of the injected dose per gram of tissue (%ID/g) values, corrected for radioactive decay to the time of injection, were measured in tumor and major tissues/organs (heart, liver, kidney, lung, muscle, brain, spleen, and tumor) by sacrificing groups of normal mice or mice bearing serous ovarian hindleg xenografts (OV-90) at specified time points.

Molecules are shown by their SMILES. Positions of bridges follow the written chain, without caps; N, C: chain ends. Residues, ends and D or L forms follow the SMILES beside them.

Regarding `COc1cccc2c1C(=O)c1c(O)c3c(c(O)c1C2=O)C[C@@](O)(C(=O)CO)C[C@@H]3O[C@H]1C[C@H](N)[C@H](O)[C@H](C)O1` [Doxorubicin, doxorubicin], in the data set on A2780 xenografts, the “Day at which live mice with tumor size exceeding 1000 mm^3 were sacrificed” value turned out to be 24 days. The “Maximum body weight loss” value in data set [1] is on record as “about 10%”. In the case of `CC(C)C[C@@H]1NC(=O)[C@H]([C@@H](C)O)NC(=O)[C@H](Cc2ccccc2)NC(=O)CNC(=O)[C@H](Cc2c[nH]c3ccccc23)NC(=O)[C@H](Cc2c[nH]cn2)NC(=O)[C@H]([C@@H](C)O)NC(=O)[C@H]([C@@H](C)O)NC(=O)[C@@H](N)CSSC[C@@H](C(=O)O)NC1=O` [CTT1-peptide] (H-CTTHWGFTLC-OH; disulfide 1-10), in data set [2] (nontumor-bearing normal mice, n = 5, single i.v. tracer dose ~40 μg/mouse, 125I label, compared between CTT1- and CTT2-peptide (Figure 4)), the “Liver accumulation of peptide per gram of tissue relative to muscle” value is listed as “greater liver accumulation”. For the compound `CC(C)C[C@@H]1NC(=O)[C@H]([C@@H](C)O)NC(=O)[C@H](Cc2ccccc2)NC(=O)CNC(=O)[C@H](Cc2c[nH]c3ccccc23)NC(=O)[C@H](Cc2c[nH]cn2)NC(=O)[C@H]([C@@H](C)O)NC(=O)[C@H]([C@@H](C)O)NC(=O)[C@@H](NC(=O)CNC(=O)[C@H](Cc2c[nH]cn2)NC(=O)[C@H](Cc2ccc(O)cc2)NC(=O)[C@H](CC(N)=O)NC(=O)[C@H](CCC(=O)O)NC(=O)[C@H](CCCNC(=N)N)NC(=O)CN)CSSC[C@@H](C(N)=O)NC1=O` [CTT2-peptide] (H-GRENYHGCTTHWGFTLC-NH2; disulfide 8-17), in data set [2] (normal mice, compared with CTT1-peptide), the Hepatic clearance result was “more rapid hepatic clearance”.
